# Data as given in patent US20110183948A1, “TREATMENT OF FIBROTIC CONDITIONS USING HEDGEHOG INHIBITORS” (INFINITY PHARMACEUTICALS, INC., priority 2010, published 2011).
# Several values for one entry are separate records, joined by “and”; a condition that tells them apart may be missing. Identical values can stand only once. Entries after “also recorded” stand apart in the source; their conditions may differ.
# How the values were obtained:
# [1] = test system: pancreatic adenocarcinoma; experiment: KPC mouse model of pancreatic adenocarcinoma / pancreatic animal models; format: in vivo
# [2] = Bleomycin-induced pulmonary fibrosis model in C57BL/6 mice (study INF-01): body weight and survival; format: in vivo
# Procedure: (§1) Thirty-two C57/B6 mice were prospectively randomized into four equally sized groups of eight animals each. An additional four mice served as naïve controls. Pulmonary fibrosis was induced with a single dose of bleomycin (4 U/kg) given intra-nasally on Day 0. Animals' activity and weight were evaluated daily. IPI 926 or vehicle was given every other day from 10 days prior to bleomycin until sacrifice on Day 30, or IPI926 was given beginning on either Day 0 or Day 14 on alternate days until the end of the study. At the end of the study on Day 30, all mice were euthanized and bronchiolar lavage performed to enable an evaluation of the inflammatory infiltrate in the lungs and collect the fluid for possible cytokine evaluation. One lung from each animal was collected for histology, while the other was snap frozen and retained for possible additional analyses.
# (§2) Bleomycin, a glycopeptides anti-cancer agent originally isolated from Streptomyces verticillus is currently approved for use against squamous cell carcinoma, testicular cancer and Hodgkin's disease. Pulmonary fibrosis is a significant toxicity associated with the use of bleomycin, occurring in a significant percentage of patients undergoing bleomycin therapy. In C57/B6 mice, pulmonary inflammation and subsequent fibrosis is reproducible following bleomycin treatment, and the severity of pulmonary fibrosis is dose-dependent with higher doses being used to evaluate short term inflammatory effects, while lower doses are used to study the longer term impact of pulmonary fibrosis. In this model, mice are given 4 U/kg of bleomycin intranasally and pulmonary fibrosis is evaluated histologically 30 days after the administration of the bleomycin.
# Oral administration by gavage QOD for 30 days 40 mg/kg Administered volume varies by weight
# Thirty-six (36) female C57B1/6 mice (Charles River Laboratories), aged 5 to 6 weeks, with a mean body weight of 19.7 g at study commencement, were used. Animals were individually numbered using an ear punch and housed in groups of eight animals per cage. Animals were acclimatized for 3 days prior to study commencement. During acclimatization, the animals were observed daily in order to reject animals that presented in poor condition.
# Pulmonary fibrosis was induced with a single intra-nasal administration of bleomycin at 4 U/kg in 25 μL of saline. Animals were anesthetized by breathing isoflurane in a closed chamber (2-3% isoflurane 200-300 mls oxygen) to effect. When non-responsive to toe pinch, each animal was held in one hand in an upright position and the bleomycin placed in nares and the droplet watched until inhaled. […]
# Animals were weighed and evaluated for respiratory distress daily. […]
# All animals were weighed and evaluated for respiratory distress daily throughout this study. […]
# [3] = test system: experimental liver metastasis; experiment: Mouse model of experimental liver metastasis; format: in vivo; conditions: prophylactic administration
# [4] = test system: Sonic Hedgehog (SHh) and Gli-1; experiment: Immunohistochemistry of lung samples from the bleomycin lung fibrosis study for SHh and Gli-1; format: in vivo, C57BL/6 mice
# Procedure: I. IHC protocol to detect Gli1 on murine and human tissues: Rabbit anti-mouse Gli1 (Novus Biologicals NBP1-03294), Whole Rabit IgG2 Positive control: RMS, BCC
# • 1. Dilute the Gli1, 1:200, in DaVinci Green Diluent. Add ratIgG2a, at same dilution, to the negative controls. Add a volume of 300 μl to each slide. • 2. Incubate for 1.5 hours at room temperature.
# Rabbit anti-human SHh (Abcam# ab53281). Isotype control: Whole Rabbit IgG Positive control: Pancreatic xenograft Secondary: Rabbit-on-Rodent Polymer (Biocare Medical RMR622) for xenografts or Mach 2 (Biocare Medical RHRP520) for human tissue Wash buffer: PBS+0.5% Tween Citrate Retrieval buffer DaVinci Green Primary Ab diluent (Biocrae Medical PD900) DAB Enhancer (Zymed Cat. No. 00-2021)
# • 1. Dilute the SHH, 1:2000 (optimized on the DAKO autostainer), in DaVinci Green Diluent. Add RabbitIgG, at same dilution, to the negative controls. Add a volume of 300 μl to each slide. • 2. Incubate for 90 minutes at room temperature.
# [5] = test system: pulmonary fibrosis induced by bleomycin; experiment: Example 2B bleomycin-induced pulmonary fibrosis: hydroxyproline; format: in vivo, C57BL/6 mice; conditions: treatment begun on the day of bleomycin insult
# Procedure: (§3) Experimental conditions used in this study are similar to the ones described in Example 2A. […] Mice were treated with bleomycin (BLM) on day 0 and controls received saline (SAL).
# [6] = test system: white blood cells in bronchiolar lavage fluid; experiment: Bleomycin-induced pulmonary fibrosis model (INF-01): bronchiolar lavage fluid cell counts; format: in vivo, C57BL/6 mice; set-up: Bronchiolar lavage fluid counts WBC: unit not given here; conditions: for Bronchiolar lavage fluid counts % lymph / Bronchiolar lavage fluid counts % monos / Bronchiolar lavage fluid counts % neutro / Bronchiolar lavage fluid counts WBC: individual animals
# Procedure: as §1
# At necropsy, the inflammatory infiltrated was evaluated by counting cells in the fluid collected following bronchiolar lavage. Bronchiolar lavage was performed by inserting a 20-gauge cannula into the trachea, which was tied in place with suture. The cannula was attached to a 1 mL syringe which was used to deliver and then recover 1 mL of sterile PBS. This fluid was then centrifuged to recover the cells and the resulting fluid saved for potential evaluation. Cell counts were performed on a HTI PCE-90vet automated veterinary hematology analyzer.
# At sacrifice, BAL fluids were collected from all animals. The cells from these fluids were evaluated for differential white count. The fluids were retained for cytokine analysis.
# [7] = Example 2B bleomycin-induced pulmonary fibrosis: body weight and survival; format: in vivo, C57BL/6 mice
# Procedure: as §3
# The effects of IPI-926 in body weight and survival that accompany bleomycin insult are shown in FIGS. 15 and 16, respectively.
# [8] = test system: pulmonary fibrosis induced by bleomycin; experiment: Bleomycin-induced pulmonary fibrosis model (INF-01): lung histology scoring; format: in vivo, C57BL/6 mice; set-up: key to Chronic Inflammation (0-5): 0: None present; 1: Rare foci; minimal; 2: Scattered aggregates or mild diffuse inflammation; 3: Numerous aggregates or moderate diffuse inflammation; 4: More marked inflammation either scattered or diffuse; 5: More severe inflammation either scattered diffuse inflammation; conditions: for pulmonary fibrosis and associated inflammation compared to the vehicle control group: 40 mg/kg, not statistically significant (Kruskal-Wallis); for mean interstitial fibrosis foci count: foci that fill a 10x objective field; for mean chronic inflammation score / mean interstitial fibrosis score: scale 0-5; for Chronic Inflammation (0-5) / Interstitial Fibrosis (0-5) / Number of Foci of Interstitial Fibrosis that Fill a 10x Objective Field: individual animals
# Procedure: as §1, §2
# Each lung sample was trimmed into 1-3 sections. Tissues were embedded in paraffin and sectioned at approximately 5 microns. Two slides for each lung were stained. One was stained with hematoxylin and eosin (H&E) and another serial section was stained with a trichrome stain. All slides were examined by a board-certified veterinary pathologist. Tissues were scored for chronic inflammation and interstitial fibrosis according to the criteria in Table 5 below. In addition the number of foci of interstitial fibrosis in the lung that filled a 10× objective field (100× total magnification) were counted and reported. Statistical analysis was performed with GraphPad Prism version 4.03 and included a Kruskal-Walis test followed by a Dunn's post-test comparing all groups to each other. Individual animal findings are listed herein in the Tables below.
# Lungs were taken at sacrifice on Day 30 for analysis. Lungs were removed and partitioned in two halves. On half was fixed in 10% formalin, before embedding and sectioning. Slides made from each sample were stained with H&E or Masson's Trichrome. The other half of lung sample were snap-frozen in liquid nitrogen and stored at −80 C for future analysis of mRNA by QT-PCR and/or proteomic analysis.
# [9] = Group 3: Qod, Day 0 to Day 30, individual animals
# [10] = Group 2: Qod, Day −10 to Day 30
# [11] = groups Day 0 to 30 or Day 14 to 30
# [12] = all three treatments, Day-10 to Day 30 greatest effect
smiles,measurement,setting,value
CC1=C2C[C@H]3[C@@H](CC[C@@H]4C[C@H](NS(C)(=O)=O)CC[C@@]43C)[C@@H]2CC[C@@]2(C1)O[C@@H]1C[C@H](C)CN[C@H]1[C@H]2C [IPI-926],desmoplastic infiltration,[1]; KPC mouse model,inhibition of desmoplastic infiltration
same,metastasis,[1]; KPC mouse model,decreased metastasis
same,survival,[1]; KPC mouse model,increased survival
same,desmoplastic component,[1]; pancreatic animal models,dramatic effect on the desmoplastic component
same,"Daily Animal Weights, Day 14",[2]; [9],21.09
same,"Daily Animal Weights, Day 27",[2]; [9],21.09
same,animals that died or were euthanized,[2]; group treated from Day −10 to Day 30,sac'd
same,weight gain relative to vehicle controls,"[2]; mouse, in vivo",reductions in weight gain relative to vehicle controls
same,metastatic spread and survival,[3],dramatic effects on metastatic spread and survival
same,SHh immunoreactivity,"[4]; d=−10, d=0, d=14",only IPI-926 administered at d=−10 appeared to have an effect on this signal
same,Gli-1 immunoreactivity in comparison to vehicle treatment,"[4]; d=−10, d=0 and d=14",appears to decrease the Gli-1 immunoreactivity
same,fibrosis as ug of hydroxproline per g of animal body weight,[5],reduces the fibrosis caused by bleomycin
same,mean lymphocytes in bronchiolar lavage fluid,[6]; Day −10 to 30,41%
same,mean monocytes in bronchiolar lavage fluid,[6]; Day −10 to 30,1.5%
same,mean neutrophils in bronchiolar lavage fluid,[6]; Day −10 to 30,48%
same,mean WBC count in bronchiolar lavage fluid,[6]; Day −10 to Day 30,1.53 ×10^6 cells/μL
same,mean WBC count in bronchiolar lavage fluid,[6]; Days 0-30,1.09 ×10^6 cells/μL
same,mean WBC count in bronchiolar lavage fluid,[6]; Days 14-20 (so in the source),0.79 ×10^6 cells/μL
same,Bronchiolar lavage fluid counts % lymph,[6]; [10],43% and 44% (2×) and 41% and 26% and 46%
same,Bronchiolar lavage fluid counts % monos,[6]; [10],4% (2×) and 6% (2×) and 8% and 3%
same,Bronchiolar lavage fluid counts % neutro,[6]; [10],43% and 41% and 48% and 60% and 49% and 47%
same,Bronchiolar lavage fluid counts WBC,[6]; [10],0.6 and 1.3 and 2.1 (2×) and 1.9 and 1.2
same,Bronchiolar lavage fluid counts % lymph,"[6]; Group 3: Qod, Day 0 to Day 30",41% and 45% and 46% (2×) and 40% and 56% and 51% and 49%
same,Bronchiolar lavage fluid counts % monos,"[6]; Group 3: Qod, Day 0 to Day 30",4% (4×) and 3% (2×) and 7% and 5%
same,Bronchiolar lavage fluid counts % neutro,"[6]; Group 3: Qod, Day 0 to Day 30",43% and 47% and 44% and 52% and 41% and 34% and 42% and 45%
same,Bronchiolar lavage fluid counts WBC,"[6]; Group 3: Qod, Day 0 to Day 30",1.3 (3×) and 0.1 and 0.9 and 1.5 and 1.1 and 1.2
same,Bronchiolar lavage fluid counts % lymph,"[6]; Group 4: Qod, Day 14 to Day 30",51% and 53% and 54% and 42% and 55% and 46% and 45% and 49%
same,Bronchiolar lavage fluid counts % monos,"[6]; Group 4: Qod, Day 14 to Day 30",3% (3×) and 9% and 4% and 1% and 2% and 11%
same,Bronchiolar lavage fluid counts % neutro,"[6]; Group 4: Qod, Day 14 to Day 30",42% and 28% and 41% and 50% and 35% and 49% and 43% and 45%
same,Bronchiolar lavage fluid counts WBC,"[6]; Group 4: Qod, Day 14 to Day 30",1.1 (2×) and 0.9 (3×) and 0.4 (2×) and 0.6
same,white cell count in bronchiolar lavage,"[6]; all groups treated, greatest in Day 14 to Day 30 group",reductions in the number of white cells in the bronchiolar lavage; also recorded: Reductions in white cell count
same,mean lymphocytes in bronchiolar lavage fluid,[6]; [11],47-49%
same,mean neutrophils in bronchiolar lavage fluid,[6]; [11],42-44%
same,animal death / survival after bleomycin administration,[7],significantly abrogates the increase in animal death
same,body weight loss that accompanies bleomycin insult,[7],reduces the dramatic loss in body weight
same,pulmonary fibrosis and associated inflammation compared to the vehicle control group,[8],reduction in pulmonary fibrosis and associated inflammation
same,pulmonary fibrosis and associated inflammation compared to the vehicle control group,[8]; listed as IPI926,effective in reducing the histological features of bleomycin induced pulmonary fibrosis
same,mean interstitial fibrosis foci count,[8]; Day −10 to Day 30,2.1
same,mean chronic inflammation score,[8]; Day −10 to Day 30,1.0
same,mean interstitial fibrosis score,[8]; Day −10 to Day 30,1.0
same,mean interstitial fibrosis foci count,[8]; Days 0 to 30,3.4
same,mean chronic inflammation score,[8]; Days 0 to 30,1.1
same,mean interstitial fibrosis score,[8]; Days 0 to 30,1.1
same,mean interstitial fibrosis foci count,[8]; Days 14 to 30,5.9
same,mean chronic inflammation score,[8]; Days 14 to 30,1.6
same,mean interstitial fibrosis score,[8]; Days 14 to 30,1.6
same,Chronic Inflammation (0-5),[8]; [10],1
same,Interstitial Fibrosis (0-5),[8]; [10],1 (1-6 foci that fill a 10x objective field)
same,Number of Foci of Interstitial Fibrosis that Fill a 10x Objective Field,[8]; [10],2 (2×) and 1 (3×) and 4 (2×)
same,Chronic Inflammation (0-5),"[8]; Group 3: Qod, Day 0 to Day 30",1 (7×) and 2
same,Interstitial Fibrosis (0-5),"[8]; Group 3: Qod, Day 0 to Day 30",1 (1-6 foci that fill a 10x objective field) (7×) and 2 (7-12 foci that fill a 10x objective field)
same,Number of Foci of Interstitial Fibrosis that Fill a 10x Objective Field,"[8]; Group 3: Qod, Day 0 to Day 30",2 (3×) and 10 and 1 (2×) and 4 and 5
same,Chronic Inflammation (0-5),"[8]; Group 4: Qod, Day 14 to Day 30",1 (5×) and 3 (2×) and 2
same,Interstitial Fibrosis (0-5),"[8]; Group 4: Qod, Day 14 to Day 30",1 (1-6 foci that fill a 10x objective field) (5×) and 3 (13-18 foci that fill a 10x objective field) (2×) and 2 (7-12 foci that fill a 10x objective field)
same,Number of Foci of Interstitial Fibrosis that Fill a 10x Objective Field,"[8]; Group 4: Qod, Day 14 to Day 30",2 (4×) and 14 and 17 and 7 and 1
same,Chronic Inflammation Scores compared to Vehicle (FIG. 7),"[8]; all three treatments, Day 0 to Day 30 greatest effect",reduce inflammation compared to the Vehicle control group
same,Interstitial Fibrosis Scores compared to Vehicle (FIG. 8),[8]; [12],reduce inflammation compared to the Vehicle control group
same,number of foci of interstitial fibrosis compared to Vehicle (FIG. 9),[8]; [12],reduce inflammation compared to the Vehicle control group
same,amount of lung fibrosis induced by bleomycin,"[8]; d=−10, Mann-Whitney test, p<0.05",decreases the amount of lung fibrosis induced by bleomycin in a statistically significant manner
